From patent publication US20220349825A1, “METHOD AND DEVICE FOR MEASURING CELL CONTRACTILITY” (THE ROYAL INSTITUTION FOR THE ADVANCEMENT OF …, priority 2021, published 2022)

Test system: NIH-3T3 fibroblast cells
Experiment: time-dependent coverage-based (PaCS) measurement of cellular forces of fibroblasts on square patterns on 12 kPa PDMS, compared with TFM
Format: cell-based, mouse
Conditions: 2 μM Cytochalasin D at end of 18 hours measurement; square patterns ~2400 μm^2; 12 kPa PDMS substrate
Method: The ability of the coverage-based technique to resolve time-dependent work was further tested. Fibroblast cellular forces on square patterns (˜2400 μm^2) on PDMS substrates (12 kPa) for 18 hours were measured; to further test the sensitivity of this technique the cellular forces was inhibited by depolymerizing actin using Cytochalasin D (Cyto D) in the last few hours of measurement. Using time-dependent coverage-based technique, cellular forces with time was measured when compared to TFM measurements, even after the Cyto D treatment, as presented in FIGS. 9c and 9d. […] Also the low strain energy values of ˜0.1 pJ indicate minimum resolution of the measurement on 12 kPa PDMS substrate. […]
After 16-18 hours of cell seeding, cells were stained with cell tracker green CMFDA (Thermofisher) to detect cell boundaries, and the plates were transferred to a lab-built heated stage perfused with 5% CO2 and mounted on a confocal microscope (Leica TCS SP8 with a 10×0.4 NA objective). With this setup, cells were imaged with transmission and fluorescence microscopy for extended periods, while maintaining a controlled culture environment
In PaCS, cells are confined on adhesive micropatterns of known area on linearly elastic silicone substrates. […] First, the deformed and undeformed pattern area are measured by thresholding the fluorescent pattern images. […]

SMILES: C=C1[C@@H](C)[C@H]2[C@H](Cc3ccccc3)NC(=O)[C@]23[C@H](OC(C)=O)/C=C/[C@@](C)(O)C(=O)[C@@H](C)C/C=C/[C@H]3[C@@H]1O [Cytochalasin D]
- cellular force (contractility) after drug treatment: decreased cellular force
- pattern area after drug treatment: increased pattern area
